Tests used:
Type in all cases: cell-based
[1] = test system: SNU719 cells; experiment: MTS cell viability, inhibitor combined with EBV-specific T cells (Example 2); conditions: combination with EBV-specific T cells (25:1) vs individual treatment, 48 hrs; AZD6244 0.5 μM, trematinib 1.0 μM, JQ1 5.0 μM
Experimental: Cell viability assay was performed using the CellTiter 96® AQueous one cell viability assay reagent (Promega, WI, USA) for three biological replicates per EBV-associated cancer cell lines in triplicate. Briefly, the cancer cells (target cells) were plated at a density of 5000 cells per well in an overall media volume of 200 μL on a 96-well tissue-culture plate (BD Falcon™). The effector AdE1-LMPpoly transfected T cells were freshly thawed in RPMI-1640 with 10% FCS and 120 IU/mL of recombinant IL-2 at 37° C. and 50% CO2. Post 24 hrs of plating and incubation at 37° C. and 50% CO2, the effector T cells were mixed to the target cells at a gradient ratio of effector to target (E:T) of 5:1-100:1. The exact number of T cells (To) used per E:T ratio (ET) was independently used as control alongside PBS treated target cells (Es) and sole media (M0). After 24 hrs of incubation at 37° C. and 50% CO2, MTS was added to each well (1:100 dilution in media) and was incubated for 1 hour following which the plate was centrifuged at 1,200×g at room temperature for 5 min and absorbance of the mixture at an optical density of 490 nm was measured via a microplate reader. The relative cell viability was calculated using the following formula: […]

[2] = test system: C17, C666.1, SNU719 and YCCLE1 cells; experiment: MTS cell viability, inhibitor combined with HLA matched allogeneic EBV-specific T cells (Example 3); conditions: combination with HLA matched EBV-specific T cells 25:1 vs individual treatment, 48 hrs; MEK1/2 inhibitors 1 μM, JQ1 2.5 μM
Experimental: The data are represented as the mean±SD from three independent experiments. P-values were calculated using one-way ANOVA: ns=not significant, *=p<0.05, **=p<0.01, ***=p<0.001 and ****=p<0.0001.
The data are represented as the mean±SD from three independent experiments.

[3] = test system: SNU719 cells; experiment: Annexin V binding assay, inhibitor combined with EBV-specific T cells; conditions: combination with EBV-specific T cells (25:1) vs individual treatment, 48 hrs; AZD6244 0.5 μM, trematinib 1.0 μM, JQ1 5.0 μM
Experimental: We treated SNU719 cells (gastric cancer cells) with MEK1/2 inhibitor (AZD6244 (or selumetanib) and trematinib) at concentration of 0.5 μM and 1.0 μM respectively, as individual treatment or in combination with EBV-specific T cells (25:1) as effector to target ratio.
We treated SNU719 cells with JQ1 inhibitor at concentration of 5.0 μM, as individual treatment or in combination with EBV-specific T cells (25:1) as effector to target ratio.

[4] = test system: SNU719 and C666.1 cells; experiment: Flow cytometry of cancer cell intrinsic pathways and immune regulatory molecules; conditions: 16 hours, JQ1 2.5 μM; for MHC-Class I expression: inhibitor alone and in combination with HLA-matched T cells; for MHC-Class I expression / MYC expression / pERK1/2 expression / pSTAT3 expression: selumatinib 1 μM
Experimental: FIG. 13: Phenotyping the impact of dual combination of MEK1/2 inhibitor and HLA matched allogeneic EBV specific T coils on cancer cell intrinsic pathways. Representation of the cancer cell phenotype after 16 hours of individual and dual combination of selumatinib (1 μM) and HLA-matched EBV specific T cells (effector-to-target ratio of 25:1) among SNU719 (upper panel) and C666.1 (lower panel) on the expression of (A) pERK1/2; (B) MHC-Class I; (C) pSTAT3; and (D) MYC performed using flow cytometry. The data are represented as the mean±SD from three independent experiments. P-values were calculated using one-way ANOVA: ns=not significant, *p<0.05, **p<0.01, ***p<0.001 and ****p<0.0001.
FIG. 17: Phenotyping the impact of dual combination of JQ1 inhibitor and MLA matched allogeneic EBV-specific T cells on cancer cell intrinsic pathways. Representation of the cancer cell phenotype after 16 hours of individual and dual combination of JQ1 (2.5 μM) and HLA-matched EBV specific T cells (effector-to-target ratio of 25:1) among SNU719 (upper panel) and C666.1 (lower panel) on the expression of (A) MYC; (B) pERK1/2; (C) pAKT; and (D) pSTAT3 performed using flow cytometry. The data are represented as the mean±SD from three independent experiments. P-values were calculated using one-way ANOVA: ns=not significant, *p<0.05, **p<0.01, ***p<0.001 and ****p<0.0001.
FIG. 18: Phenotyping the impact of dual combination of JQ1 inhibitor and HLA matched allogeneic EBV specific T cells on immune regulatory molecules. Representation of the cancer cell phenotype after 16 hours of individual and dual combination of JQ1 (2.5 μM) and HLA-matched EBV specific T cells (effector-to-target ratio of 25:1) among SNU719 (upper panel) and C666.1 (lower panel) on the expression of (A) MHC Class-I; (B) PD-L1; and (C) CD47 performed using flow cytometry. The data are represented as the mean±SD from three independent experiments. P-values were calculated using one-way ANOVA: ns=not significant, *p<0.05, **p<0.01, ***p<0.001 and ****p<0.0001.
In next set of experiments, we wanted to investigate the effect of the dual combination the cancer cell intrinsic pathway and describe the rationale of the effective combination of MEK1/2 inhibition with T cell treatment. […] As a result, we observed upregulation of MHC-Class I expression in presence of selumatinib alone and in combination with respective HLA-matched T cells (FIG. 13B). […] Thus, inhibition of MEK1/2 pathway results in upregulation of MHC-class I expression via upregulation of STAT3 pathway and downregulation of MYC which enabling better therapeutic compatibility in presence of HLA-matched allogeneic T cells.
Next, we wanted to determine the specificity of the combination and as such we challenged SNU719 and C666.1 cells with HLA-mismatch allogeneic T cells alongside JQ1 inhibitor individually and in combination. […] In next set of experiments, we wanted to investigate rationale of the effective combination of JQ1 inhibition with T cell treatment. […] As a result, it caused downregulation of pERK1/2, pAKT and pSTAT3 expression (FIG. 17B-C).

Q: Which results are given for `Cc1sc2c(c1C)C(c1ccc(Cl)cc1)=N[C@@H](CC(=O)OC(C)(C)C)c1nnc(C)n1-2` [JQ1]?
A: cell viability of SNU719 [1]: significantly reduced; cell viability [2]: significantly reduced; binding of Annexin V among SNU719 cells [3]: significantly higher binding of Annexin V; CD47 expression [4]: downregulation; PD-L1 expression [4]: downregulation; pAKT expression [4]: downregulation; MHC-Class I expression [4]: enhancing; MYC expression [4]: significant reduction; pERK1/2 expression [4]: downregulation; pSTAT3 expression [4]: downregulation

Q: With `Cn1cnc2c(F)c(Nc3ccc(Br)cc3Cl)c(C(=O)NOCCO)cc21` [selumetanib] as the compound, how does the “cell viability of SNU719” value [1] read?
A: The value was “significantly reduced”.

Q: What about the cell viability [2] of the same compound?
A: The cell viability was “significantly reduced”.

Q: And the “binding of Annexin V among SNU719 cells” value [3]?
A: The value was “significantly higher binding of Annexin V”.

Q: And the “MHC-Class I expression” value [4]?
A: Its value is “upregulation”.

Q: What about the MYC expression [4] of the same compound?
A: The MYC expression was “downregulation”.

Q: And the pERK1/2 expression [4]?
A: Its pERK1/2 expression is “significant reduction”.

Q: What about the pSTAT3 expression [4] of the same compound?
A: The pSTAT3 expression was “upregulation”.
